Test results: PubChem BioAssay (NCI)
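Protocol summary: plate cells (96-well), add compound at 5 concentrations, incubate 48 h, interpolate endpoints linearly. The concentration for full growth arrest is given as TGI.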

Assays:
Assay in all cases: NCI-60 cell line screen, 48 h
[1] = test system: NCI-H522 lung
[2] = test system: SK-OV-3 ovarian
[3] = test system: KM12 colon
[4] = test system: 786-0 renal
[5] = test system: BT-549 breast
[6] = test system: SF-539 CNS
[7] = test system: MCF7 breast
[8] = test system: RPMI-8226 leukemia
[9] = test system: NCI-H460 lung
[10] = test system: SF-295 CNS
[11] = test system: SF-268 CNS
[12] = test system: NCI-H226 lung
[13] = test system: PC-3 prostate
[14] = test system: OVCAR-8 ovarian
[15] = test system: SNB-19 CNS
[16] = test system: SW-620 colon
[17] = test system: SN12C renal
[18] = test system: OVCAR-5 ovarian
[19] = test system: SK-MEL-5 melanoma
[20] = test system: MALME-3M melanoma
[21] = test system: LOX IMVI melanoma
[22] = test system: A498 renal
[23] = test system: ACHN renal
[24] = test system: K-562 leukemia
[25] = test system: M14 melanoma
[26] = test system: SK-MEL-28 melanoma
[27] = test system: SK-MEL-2 melanoma
[28] = test system: UACC-62 melanoma
[29] = test system: HOP-62 NSCLC
[30] = test system: HCC-2998 colon
[31] = test system: SR leukemia
[32] = test system: RXF 393 renal
[33] = test system: DU-145 prostate
[34] = test system: CAKI-1 renal
[35] = test system: MDA-MB-435
[36] = test system: HL-60(TB) leukemia
[37] = test system: COLO 205 colon
[38] = test system: SNB-75 CNS
[39] = test system: HOP-92 NSCLC
[40] = test system: UO-31 renal
[41] = test system: HS 578T breast
[42] = test system: HCT-116 colon
[43] = test system: U251 CNS
[44] = test system: EKVX NSCLC
[45] = test system: MDA-N
[46] = test system: IGROV1 ovarian
[47] = test system: A549 NSCLC
[48] = test system: TK-10 renal
[49] = test system: OVCAR-3 ovarian
[50] = test system: HT29 colon
[51] = test system: NCI-H23 lung
[52] = test system: MDA-MB-231 breast
[53] = test system: UACC-257 melanoma
[54] = test system: HCT-15 colon
[55] = test system: NCI/ADR-RES ovarian
[56] = test system: OVCAR-4 ovarian
[57] = test system: CCRF-CEM leukemia
[58] = test system: MOLT-4 leukemia
[59] = test system: T-47D breast

With `Cc1cn(C2OC(CO)C(O)C2O)c(=O)[nH]c1=O` (stereo not drawn) as the compound, how does the TGI [1] read?
The TGI was > 1000 µM.

And the TGI [2]?
Its TGI is > 1000 µM.

And the TGI [3]?
The TGI was > 1000 µM.

And the TGI [4]?
Its TGI is > 1000 µM.

What about the TGI [5] of the same compound?
The TGI was > 1000 µM.

What about the TGI [6] of the same compound?
The TGI was > 1000 µM.

What about the TGI [7] of the same compound?
Its TGI is > 1000 µM.

And the TGI [8]?
The TGI was > 1000 µM.

What about the TGI [9] of the same compound?
Its TGI is > 1000 µM.

And the TGI [10]?
Its TGI is > 1000 µM.

And the TGI [11]?
The TGI was > 1000 µM.

And the TGI [12]?
Its TGI is > 1000 µM.

What about the TGI [13] of the same compound?
The TGI was > 1000 µM.

What about the TGI [14] of the same compound?
Its TGI is > 1000 µM.

What about the TGI [15] of the same compound?
Its TGI is > 1000 µM.

And the TGI [16]?
Its TGI is > 1000 µM.

And the TGI [17]?
Its TGI is > 1000 µM.

And the TGI [18]?
Its TGI is > 1000 µM.

And the TGI [19]?
The TGI was > 1000 µM.

And the TGI [20]?
The TGI was > 1000 µM.

And the TGI [21]?
Its TGI is > 1000 µM.

And the TGI [22]?
Its TGI is > 1000 µM.

And the TGI [23]?
The TGI was > 1000 µM.

What about the TGI [24] of the same compound?
The TGI was > 1000 µM.

And the TGI [25]?
The TGI was > 1000 µM.

What about the TGI [26] of the same compound?
Its TGI is > 1000 µM.

What about the TGI [27] of the same compound?
Its TGI is > 1000 µM.

And the TGI [28]?
The TGI was > 1000 µM.

What about the TGI [29] of the same compound?
The TGI was > 1000 µM.

And the TGI [30]?
Its TGI is > 1000 µM.

What about the TGI [31] of the same compound?
The TGI was > 1000 µM.

And the TGI [32]?
Its TGI is > 1000 µM.

What about the TGI [33] of the same compound?
Its TGI is > 1000 µM.

What about the TGI [34] of the same compound?
Its TGI is > 1000 µM.

And the TGI [35]?
Its TGI is > 1000 µM.

What about the TGI [36] of the same compound?
The TGI was > 1000 µM.

And the TGI [37]?
The TGI was > 1000 µM.

What about the TGI [38] of the same compound?
The TGI was > 1000 µM.

What about the TGI [39] of the same compound?
Its TGI is > 1000 µM.

What about the TGI [40] of the same compound?
The TGI was > 1000 µM.

What about the TGI [41] of the same compound?
Its TGI is > 1000 µM.

And the TGI [42]?
Its TGI is > 1000 µM.

What about the TGI [43] of the same compound?
The TGI was > 1000 µM.

And the TGI [44]?
The TGI was > 1000 µM.

What about the TGI [45] of the same compound?
The TGI was > 1000 µM.

What about the TGI [46] of the same compound?
The TGI was > 1000 µM.

And the TGI [47]?
The TGI was > 1000 µM.

What about the TGI [48] of the same compound?
Its TGI is > 1000 µM.

And the TGI [49]?
Its TGI is > 1000 µM.

What about the TGI [50] of the same compound?
The TGI was > 1000 µM.

What about the TGI [51] of the same compound?
The TGI was > 1000 µM.

What about the TGI [52] of the same compound?
The TGI was > 1000 µM.

And the TGI [53]?
Its TGI is > 1000 µM.

And the TGI [54]?
Its TGI is > 1000 µM.

What about the TGI [55] of the same compound?
Its TGI is > 1000 µM.

And the TGI [56]?
Its TGI is > 1000 µM.

And the TGI [57]?
The TGI was > 1000 µM.

What about the TGI [58] of the same compound?
Its TGI is > 1000 µM.

What about the TGI [59] of the same compound?
The TGI was > 1000 µM.

What does the source list for `Cc1ccc(S(=O)(=O)/N=C(\NO)Nc2ccc(Cl)c(Cl)c2)cc1`?
TGI [1]: 19.1 µM; TGI [2]: 28.5 µM; TGI [3]: 25.4 µM; TGI [4]: 16.2 µM; TGI [5]: 23.8 µM; TGI [6]: 24.5 µM; TGI [7]: 41.3 µM; TGI [8]: 30.9 µM; TGI [9]: 23.7 µM; TGI [10]: 31.8 µM; TGI [11]: 19.9 µM; TGI [12]: 34.7 µM; TGI [13]: 18.4 µM; TGI [14]: 24.4 µM; TGI [15]: 21.4 µM; TGI [16]: 25.4 µM; TGI [17]: 5.58 µM; TGI [18]: 12.6 µM; TGI [19]: 4.82 µM; TGI [20]: 7.41 µM; TGI [21]: 19 µM; TGI [22]: 23.7 µM; TGI [23]: 24.9 µM; TGI [24]: 35 µM; TGI [25]: 18.3 µM; TGI [26]: 13.3 µM; TGI [27]: 22.4 µM; TGI [28]: 24.1 µM; TGI [29]: 27.4 µM; TGI [30]: 4.93 µM; TGI [31]: 21.5 µM; TGI [32]: 24.2 µM; TGI [33]: 24.6 µM; TGI [34]: 19.2 µM; TGI [35]: 13.6 µM; TGI [36]: 5.42 µM; TGI [37]: 30.8 µM; TGI [38]: 17.6 µM; TGI [39]: 11.8 µM; TGI [40]: 18.3 µM; TGI [41]: 27.3 µM; TGI [42]: 17.7 µM; TGI [43]: 16.8 µM; TGI [44]: 19.9 µM; TGI [45]: 14.5 µM; TGI [46]: 31.3 µM; TGI [47]: 26.9 µM; TGI [48]: 27.8 µM; TGI [49]: 16.9 µM; TGI [50]: 25.5 µM; TGI [51]: 37.2 µM; TGI [52]: 24.3 µM; TGI [53]: 15.3 µM; TGI [54]: 28.4 µM; TGI [55]: 46.3 µM; TGI [56]: 21.8 µM; TGI [57]: 15.9 µM; TGI [58]: 5.45 µM; TGI [59]: 37 µM
